The source of these data is ChEMBL document CHEMBL3046824, “Synthesis and pharmacological evaluation of newer thiazolo [3,2-a] pyrimidines for anti-inflammatory and antinociceptive activity” (Med Chem Res, 2010).

Data set [1] concerns Rattus norvegicus. The data set can be described thus: Anti-inflammatory activity in albino Rattus norvegicus (rat) assessed as inhibition of carrageenan-induced paw edema at 25 mg/kg, po administered 1 hr prior to carrageenan-challenge measured after 1 to 3 hr relative to control. The data set is classed as functional. (In the carrageenan paw model, swelling and tenderness develop within hours.)

The test system of the next data set is Mus musculus. The data set can be described thus: Antinociceptive activity in albino Mus musculus (mouse) assessed as increase in latency for tail withdrawal at 20 mg/kg, po measured after 4 hr by thermal stimulus method relative to control. The data set is classed as functional.
In data set [2] the test system is Rattus norvegicus. The data set can be described thus: Anti-inflammatory activity in albino Rattus norvegicus (rat) assessed as inhibition of carrageenan-induced paw edema at 100 mg/kg, po administered 1 hr prior to carrageenan-challenge measured after 1 to 3 hr relative to control. Type of data set: functional.
Data set [3] can be described thus: Toxicity in ip dosed albino Mus musculus (mouse) measured after 24 hr. The data set is classed as organism-based. The note with it: in vivo, read-out: ALD50.
The nature of data set [4]: Ulcerogenic activity in ip dosed fasted albino Rattus norvegicus (rat) measured after 8 hr. The data set is classed as toxicity, organism-based. The note with it: in vivo, read-out: UD50.
Data set [5] deals with Rattus norvegicus. The data set can be described thus: Anti-inflammatory activity in albino Rattus norvegicus (rat) assessed as inhibition of carrageenan-induced paw edema at 50 mg/kg, po administered 1 hr prior to carrageenan-challenge measured after 1 to 3 hr relative to control. Type of data set: functional.

By inhibition in vivo is commonly meant the percentage by which the read-out fell short of the control. On to `CC1=C(C(=O)Nc2ccc(F)cc2)C(c2ccc(Cl)cc2)n2c(s/c(=C/c3ccccc3Cl)c2=O)=N1` (centres undefined), for which, in the data set on Rattus norvegicus [1], the inhibition in vivo at 25 mg/kg came out at 16%. Moreover, the Activity in the data set on Mus musculus worked out at 63%.
As for `CC1=C(C(=O)Nc2ccc(F)cc2)C(c2ccc(Cl)cc2)n2c(s/c(=C/c3ccc(Cl)cc3Cl)c2=O)=N1` (centres undefined), the inhibition in vivo at 25 mg/kg in the data set on Rattus norvegicus [1] was determined as 14%. Moreover, in the data set on Mus musculus, the Activity turned out to be 46%.
`CC1=C(C(=O)Nc2ccc(F)cc2)C(c2ccc(Cl)cc2)n2c(s/c(=C/c3ccccc3[N+](=O)[O-])c2=O)=N1` (centres undefined): the inhibition in vivo at 25 mg/kg in the data set on Rattus norvegicus [1] was 16%. For the same compound, the Activity with Mus musculus is given as 82%.
On to `CC1=C(C(=O)Nc2ccc(F)cc2)C(c2ccc(F)cc2)n2c(s/c(=C/c3ccc([N+](=O)[O-])cc3)c2=O)=N1` (centres undefined), for which the inhibition in vivo at 25 mg/kg in the data set on Rattus norvegicus [1] was found to be 30%. In the data set on Mus musculus, the Activity worked out at 121%.
With `CC1=C(C(=O)Nc2ccc(F)cc2)C(c2ccc(F)cc2)n2c(s/c(=C/c3ccc(Cl)cc3)c2=O)=N1` (centres undefined), in the data set with Rattus norvegicus [1], the inhibition in vivo at 25 mg/kg was determined as 47%. The inhibition in vivo at 100 mg/kg with Rattus norvegicus [2] came to 78%. The LD50 at 24 h in data set [3] is over 1000 mg/kg. For the same compound, the TD50 at 8 h in data set [4] stood at 175 mg/kg. Also, in the data set on Rattus norvegicus [5], the inhibition in vivo at 50 mg/kg was 50%. Besides, the Activity in the data set with Mus musculus is given as 189%.
In the case of `CC1=C(C(=O)Nc2ccc(F)cc2)C(c2ccccc2[N+](=O)[O-])n2c(s/c(=C/c3ccccc3Cl)c2=O)=N1` (centres undefined), the inhibition in vivo at 25 mg/kg in the data set on Rattus norvegicus [1] was 12%. Also, the Activity with Mus musculus was 72%.
In the case of `CC1=C(C(=O)Nc2ccc(F)cc2)C(c2ccccc2[N+](=O)[O-])n2c(s/c(=C/c3ccc(Br)cc3)c2=O)=N1` (centres undefined), the inhibition in vivo at 25 mg/kg with Rattus norvegicus [1] came to 16%. Also, the Activity with Mus musculus came to 100%.
Consider `CC1=C(C(=O)Nc2ccc(F)cc2)C(c2ccc(F)cc2)n2c(s/c(=C/c3ccccc3Cl)c2=O)=N1` (centres undefined), for which the inhibition in vivo at 25 mg/kg with Rattus norvegicus [1] came to 19%. In addition, the Activity with Mus musculus was 119%.
For the compound `CC1=C(C(=O)Nc2ccc(F)cc2)C(c2ccc(Cl)cc2)n2c(s/c(=C/c3ccc(F)cc3)c2=O)=N1` (centres undefined), the inhibition in vivo at 25 mg/kg with Rattus norvegicus [1] stood at 44%. The inhibition in vivo at 100 mg/kg in the data set on Rattus norvegicus [2] was determined as 80%. Besides, the LD50 at 24 h in data set [3] is over 1000 mg/kg. For the same compound, the TD50 at 8 h in data set [4] was 240 mg/kg. Besides, in the data set with Rattus norvegicus [5], the inhibition in vivo at 50 mg/kg turned out to be 60%. The Activity with Mus musculus is listed as 172%.
As for `CC1=C(C(=O)Nc2ccc(F)cc2)C(c2ccc(Cl)cc2)n2c(s/c(=C/c3ccc(Br)cc3)c2=O)=N1` (centres undefined), the inhibition in vivo at 25 mg/kg with Rattus norvegicus [1] was determined as 35%. For the same compound, the Activity with Mus musculus was determined as 76%.
On to `COc1ccc(/C=c2/sc3n(c2=O)C(c2ccc(Br)cc2)C(C(=O)Nc2ccc(F)cc2)=C(C)N=3)cc1OC` (centres undefined), for which, in the data set with Rattus norvegicus [1], the inhibition in vivo at 25 mg/kg is 8%. In the data set with Mus musculus, the Activity stood at 23%.
As for `CC1=C(C(=O)Nc2ccc(F)cc2)C(c2ccc(Br)cc2)n2c(s/c(=C/c3ccc(Cl)cc3Cl)c2=O)=N1` (centres undefined), the inhibition in vivo at 25 mg/kg in the data set with Rattus norvegicus [1] stood at 14%. In addition, the Activity in the data set with Mus musculus is given as 31%.
`CC1=C(C(=O)Nc2ccc(F)cc2)C(c2ccc(Br)cc2)n2c(s/c(=C/c3ccccc3)c2=O)=N1` (centres undefined): in the data set on Rattus norvegicus [1], the inhibition in vivo at 25 mg/kg turned out to be 5%. For the same compound, the Activity in the data set with Mus musculus turned out to be 76%.
Taken in the same sequence, the figures for `CC1=C(C(=O)Nc2ccc(F)cc2)C(c2ccc(Br)cc2)n2c(s/c(=C/c3ccc(Cl)cc3)c2=O)=N1` (centres undefined) were 25% and 104%.
On to `CC1=C(C(=O)Nc2ccc(F)cc2)C(c2ccc(Br)cc2)n2c(s/c(=C/c3ccc(C)cc3)c2=O)=N1` (centres undefined), for which the inhibition in vivo at 25 mg/kg in the data set with Rattus norvegicus [1] came to 11%. Further, the Activity in the data set with Mus musculus turned out to be 72%.
Taken in the same sequence, the figures for `CC1=C(C(=O)Nc2ccc(F)cc2)C(c2ccc([N+](=O)[O-])cc2)n2c(s/c(=C/c3ccc(Cl)cc3Cl)c2=O)=N1` (centres undefined) were 17% and 121%.
As for `CC1=C(C(=O)Nc2ccc(F)cc2)C(c2ccc([N+](=O)[O-])cc2)n2c(s/c(=C/c3ccc(Cl)cc3)c2=O)=N1` (centres undefined), the inhibition in vivo at 25 mg/kg in the data set with Rattus norvegicus [1] is 23%. Also, the Activity in the data set with Mus musculus stood at 104%.
With `COc1ccc(/C=c2/sc3n(c2=O)C(c2ccc([N+](=O)[O-])cc2)C(C(=O)Nc2ccc(F)cc2)=C(C)N=3)cc1` (centres undefined), in the data set on Rattus norvegicus [1], the inhibition in vivo at 25 mg/kg was 12%. Also, the Activity in the data set on Mus musculus was determined as 46%.
`CC1=C(C(=O)Nc2ccc(F)cc2)C(c2ccc([N+](=O)[O-])cc2)n2c(s/c(=C/c3ccccc3Cl)c2=O)=N1` (centres undefined): the inhibition in vivo at 25 mg/kg in the data set with Rattus norvegicus [1] is 19%. In the data set on Mus musculus, the Activity was found to be 140%.
Regarding `CC1=C(C(=O)Nc2ccc(F)cc2)C(c2ccc([N+](=O)[O-])cc2)n2c(s/c(=C/c3ccccc3)c2=O)=N1` (centres undefined), the inhibition in vivo at 25 mg/kg in the data set with Rattus norvegicus [1] came to 7%. The Activity with Mus musculus turned out to be 93%.
In the case of `O=C(O)Cc1ccccc1Nc1c(Cl)cccc1Cl` [DICLOFENAC], in the data set on Mus musculus, the Activity is on record as 274%.
For `CCCCC1C(=O)N(c2ccccc2)N(c2ccccc2)C1=O` [PHENYLBUTAZONE], the inhibition in vivo at 25 mg/kg with Rattus norvegicus [1] stood at 43%. In addition, in the data set with Rattus norvegicus [2], the inhibition in vivo at 100 mg/kg was 70%. Further, the LD50 at 24 h in data set [3] is over 1000 mg/kg. Moreover, the TD50 at 8 h in data set [4] worked out at 70.2 mg/kg. Besides, the inhibition in vivo at 50 mg/kg in the data set with Rattus norvegicus [5] came to 55%.
